Target: full length MPS1 (Homo sapiens (Human), UniProt P33981)
Assay: Measurement of inhibition of MPS1 kinase (Caliper EZ reader, fluorescent labelled peptide H236)
Format: biochemical
Settings: full length MPS1 12.5 nM or 3 nM, peptide H236 5 μM, ATP 10 μM, 60 min at room temperature

Chain of full length MPS1 (P33981 whole entry): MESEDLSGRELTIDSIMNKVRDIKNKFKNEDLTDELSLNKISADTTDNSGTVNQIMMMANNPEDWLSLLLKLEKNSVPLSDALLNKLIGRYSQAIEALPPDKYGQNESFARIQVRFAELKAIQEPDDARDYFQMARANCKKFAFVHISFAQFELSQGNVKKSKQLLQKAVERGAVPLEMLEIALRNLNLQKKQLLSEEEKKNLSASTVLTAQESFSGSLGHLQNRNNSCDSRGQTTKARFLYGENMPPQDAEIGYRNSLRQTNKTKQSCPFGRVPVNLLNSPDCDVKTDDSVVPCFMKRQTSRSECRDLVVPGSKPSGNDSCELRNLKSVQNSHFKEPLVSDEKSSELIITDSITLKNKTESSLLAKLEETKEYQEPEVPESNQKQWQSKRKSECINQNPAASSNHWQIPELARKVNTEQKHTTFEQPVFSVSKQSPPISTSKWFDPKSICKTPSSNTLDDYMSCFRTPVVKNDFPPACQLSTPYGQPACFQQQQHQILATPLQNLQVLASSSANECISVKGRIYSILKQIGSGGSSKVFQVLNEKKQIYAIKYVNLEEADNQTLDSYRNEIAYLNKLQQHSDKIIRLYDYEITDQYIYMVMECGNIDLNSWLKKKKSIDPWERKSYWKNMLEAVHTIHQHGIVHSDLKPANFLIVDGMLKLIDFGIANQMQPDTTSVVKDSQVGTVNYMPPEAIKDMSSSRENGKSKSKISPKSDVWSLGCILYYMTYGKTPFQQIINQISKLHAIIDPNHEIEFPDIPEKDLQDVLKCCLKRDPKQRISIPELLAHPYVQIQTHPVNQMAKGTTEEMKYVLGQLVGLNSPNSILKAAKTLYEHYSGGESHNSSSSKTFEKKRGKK

COc1cc(-c2cnc(C)n2C)ccc1Nc1cc2cc(-c3cnn(CC4(C)COC4)c3)ccc2cn1 [Example 30, N-(4-(1,2-Dimethyl-1H-imidazol-5-yl)-2-methoxyphenyl)-6-(1-((3-methyloxetan-3-yl)methyl)-1H-pyrazol-4-yl)isoquinolin-3-amine]
IC50: 2 nM

COc1cc(-c2cnc(C#N)n2C)ccc1Nc1cc2cc(-c3cnn(CC(C)(C)O)c3)ccc2cn1 [Example 84, 5-(4-((6-(1-(2-Hydroxy-2-methylpropyl)-1H-pyrazol-4-yl)isoquinolin-3-yl)amino)-3-methoxyphenyl)-1-methyl-1H-imidazole-2-carbonitrile]
IC50: 5 nM

COc1cc(-c2cnc(C)n2C)ccc1Nc1cc2cc(-c3cn(C)nc3C)ccc2cn1 [Example 19, N-(4-(1,2-dimethyl-1H-imidazol-5-yl)-2-methoxyphenyl)-6-(1,3-dimethyl-1H-pyrazol-4-yl)isoquinolin-3-amine]
IC50: 30 nM

COCCn1cc(-c2ccc3cnc(Nc4ccc(C(=O)N5CC(OC)C5)cc4OC)cc3c2)cn1 [Example 72, (3-Methoxy-4-((6-(1-(2-methoxyethyl)-1H-pyrazol-4-yl)isoquinolin-3-yl)amino)phenyl)(3-methoxyazetidin-1-yl)methanone]
IC50: 3 nM

COc1cc(C(=O)N2CC(OC)C2)ccc1Nc1cc2cc(-c3cnn(CC(O)C(C)C)c3)ccc2cn1 (racemic) [Example 73, (4-((6-(1-(2-Hydroxy-3-methylbutyl)-1H-pyrazol-4-yl)isoquinolin-3-yl)amino)-3-methoxy-phenyl)(3-methoxyazetidin-1-yl)methanone]
IC50: 4 nM

COc1cc(-c2cnc(C)n2C)cnc1Nc1cc2cc(-c3cnn(CC(C)(C)O)c3)ccc2cn1 [Example 57, 1-(4-(3-((5-(1,2-Dimethyl-1H-imidazol-5-yl)-3-methoxypyridin-2-yl)amino)isoquinolin-6-yl)-1H-pyrazol-1-yl)-2-methylpropan-2-ol]
IC50: 3 nM

COc1cc(C(=O)N2CC(OC)C2)ccc1Nc1cc2cc(-c3cnn(CC(C)(C)O)n3)ccc2cn1 [Example 97, (4-(6-(2-(2-Hydroxy-2-methylpropyl)-2H-1,2,3-triazol-4-yl)isoquinolin-3-ylamino)-3-methoxyphenyl)(3-methoxyazetidin-1-yl)methanone]
IC50: 9 nM

COCc1c(-c2ccc(Nc3cc4cc(-c5cnn(CC(C)(C)O)c5)ccc4cn3)c(OC)c2)cnn1C [Example 51, 1-(4-(3-(2-Methoxy-4-(5-(methoxymethyl)-1-methyl-1H-pyrazol-4-yl)phenylamino)isoquinolin-6-yl)-1H-pyrazol-1-yl)-2-methylpropan-2-ol]
IC50: 4 nM

COc1cc(C(=O)N2CC(OC)C2)ccc1Nc1cc2cc(-c3cnn(C4COCC4O)c3)ccc2cn1 (racemic) [Example 82, (4-((6-(1-(4-Hydroxytetrahydrofuran-3-yl)-1H-pyrazol-4-yl)isoquinolin-3-yl)amino)-3-methoxyphenyl)(3-methoxyazetidin-1-yl)methanone]
IC50: 5 nM

COc1cc(-c2cnc(C)n2C)ccc1Nc1cc2cc(-c3cnn(C4CCN(C(=O)OC(C)(C)C)CC4)c3)ccc2cn1 [Example 4, tert-Butyl 4-(4-(3-((4-(1,2-dimethyl-1H-imidazol-5-yl)-2-methoxyphenyl)amino)isoquinolin-6-yl)-1H-pyrazol-1-yl)piperidine-1-carboxylate]
IC50: 110 nM

COc1cc(C(=O)N2CC(OC)C2)ccc1Nc1cc2cc(-c3cnn(CC(O)C(F)(F)F)c3)ccc2cn1 (racemic) [Example 75, (3-Methoxy-4-((6-(1-(3,3,3-trifluoro-2-hydroxypropyl)-1H-pyrazol-4-yl)isoquinolin-3-yl)amino)-phenyl)(3-methoxyazetidin-1-yl)methanone]
IC50: 3 nM

COc1cc(-c2cnc(C)n2C)ccc1Nc1cc2cc(-c3cnn(C)c3CO)ccc2cn1 [Example 34, (4-(3-((4-(1,2-Dimethyl-1H-imidazol-5-yl)-2-methoxyphenyl)amino)isoquinolin-6-yl)-1-methyl-1H-pyrazol-5-yl)methanol]
IC50: 3 nM

COc1cc(-c2cnc(C)n2C)ccc1Nc1cc2cc(-c3ccncc3)ccc2cn1 [Example 7, N-(4-(1,2-dimethyl-1H-imidazol-5-yl)-2-methoxyphenyl)-6-(pyridin-4-yl)isoquinolin-3-amine]
IC50: 145 nM

COc1cc(C(=O)N2CC(OC)C2)ccc1Nc1cc2cc(-c3cnn(C)c3)ccc2cn1 [Example 24, (3-Methoxy-4-((6-(1-methyl-1H-pyrazol-4-yl)isoquinolin-3-yl)amino)phenyl)(3-methoxyazetidin-1-yl)methanone]
IC50: 2 nM

COc1cc(-c2cnc(C)n2C)ccc1Nc1cc2cc(-c3cnn(C)c3C)ccc2cn1 [Example 20, N-(4-(1,2-dimethyl-1H-imidazol-5-yl)-2-methoxyphenyl)-6-(1,5-dimethyl-1H-pyrazol-4-yl)isoquinolin-3-amine]
IC50: 2 nM

COc1cc(C(=O)NCCO)ccc1Nc1cc2cc(-c3cnn(CC(C)(C)O)c3)ccc2cn1 [Example 61, 4-((6-(1-(2-Hydroxy-2-methylpropyl)-1H-pyrazol-4-yl)isoquinolin-3-yl)amino)-N-(2-hydroxyethyl)-3-methoxybenzamide]
IC50: 2 nM

COc1cc(-c2cnn(C)c2)ccc1Nc1cc2nc(-c3cnn(CC(C)(C)O)c3)ccc2cn1 [Example 101, 1-(4-(7-(2-Methoxy-4-(1-methyl-1H-pyrazol-4-yl)phenylamino)-1,6-naphthyridin-2-yl)-1H-pyrazol-1-yl)-2-methylpropan-2-ol]
IC50: 3 nM

COc1c(Nc2cc3cc(-c4cnn(CC(C)(C)O)c4)ccc3cn2)ccc(-c2cnc(C)n2C)c1F [Example 50, 1-(4-(3-(4-(1,2-Dimethyl-1H-imidazol-5-yl)-3-fluoro-2-methoxyphenylamino)isoquinolin-6-yl)-1H-pyrazol-1-yl)-2-methylpropan-2-ol]
IC50: 2 nM

Cc1ncc(-c2ccc(Nc3cc4cc(-c5cnn(CC(C)(C)O)c5)ccc4cn3)c(Cl)c2)n1C [Example 42, 1-(4-(3-((2-Chloro-4-(1,2-dimethyl-1H-imidazol-5-yl)phenyl)amino)isoquinolin-6-yl)-1H-pyrazol-1-yl)-2-methylpropan-2-ol]
IC50: 3 nM

COc1cc(-c2cnc3n2CCNC3)ccc1Nc1cc2cc(-c3cnn(CC(C)(C)O)c3)ccc2cn1 [Example 111, 1-(4-(3-((2-Methoxy-4-(5,6,7,8-tetrahydroimidazo[1,2-a]pyrazin-3-yl)phenyl)amino)-isoquinolin-6-yl)-1H-pyrazol-1-yl)-2-methylpropan-2-ol]
IC50: 3 nM

Cc1nnc(-c2ccc(Nc3cc4cc(-c5cnn(CC(C)(C)O)c5)ccc4cn3)c(Cl)c2)o1 [Example 77, 1-(4-(3-((2-Chloro-4-(5-methyl-1,3,4-oxadiazol-2-yl)phenyl)amino)isoquinolin-6-yl)-1H-pyrazol-1-yl)-2-methylpropan-2-ol]
IC50: 23 nM

COc1cc(-c2cnc(C)n2C)ccc1Nc1cc2cc(-c3cnn(CC4CCOCC4)c3)ccc2cn1 [Example 1, N-(4-(1,2-dimethyl-1H-imidazol-5-yl)-2-methoxyphenyl)-6-(1-((tetrahydro-2H-pyran-4-yl)methyl)-1H-pyrazol-4-yl)isoquinolin-3-amine]
IC50: 2 nM

COc1cc(C(=O)N2CC(OC)C2)ccc1Nc1cc2cc(-c3cnn(CC(O)CO)c3)ccc2cn1 (racemic) [Example 81, (4-((6-(1-(2,3-Dihydroxypropyl)-1H-pyrazol-4-yl)isoquinolin-3-yl)amino)-3-methoxyphenyl)(3-methoxyazetidin-1-yl)methanone]
IC50: 3 nM

COC1CN(C(=O)c2ccc(Nc3cc4cc(-c5cnn(CC(C)(C)O)c5)ccc4cn3)c(OC(F)F)c2)C1 [Example 91, (3-(Difluoromethoxy)-4-(6-(1-(2-hydroxy-2-methylpropyl)-1H-pyrazol-4-yl)isoquinolin-3-ylamino)phenyl)(3-methoxyazetidin-1-yl)methanone]
IC50: 2 nM

COc1cc(-c2cnc(C)n2C)ccc1Nc1cc2cc(-c3sc(C)nc3C)ccc2cn1 [Example 13, N-(4-(1,2-dimethyl-1H-imidazol-5-yl)-2-methoxyphenyl)-6-(2,4-dimethylthiazol-5-yl)isoquinolin-3-amine]
IC50: 97 nM

COc1cc(-c2cnn(C)c2)ccc1Nc1cc2cc(-c3cnn(CC(C)(C)O)c3)ccc2cn1 [Example 52, 1-(4-(3-(2-Methoxy-4-(1-methyl-1H-pyrazol-4-yl)phenylamino)isoquinolin-6-yl)-1H-pyrazol-1-yl)-2-methylpropan-2-ol]
IC50: 4 nM

COc1cc(-c2cnc(C)n2C)ccc1Nc1cc2cc(-c3cnco3)ccc2cn1 [Example 6, N-(4-(1,2-dimethyl-1H-imidazol-5-yl)-2-methoxyphenyl)-6-(oxazol-5-yl)isoquinolin-3-amine]
IC50: 4 nM

COc1cc(C(=O)N2CC(OC)C2)ccc1Nc1cc2nc(-c3cnn(CC(C)(C)O)c3)ccc2cn1 [Example 104, (4-(2-(1-(2-Hydroxy-2-methylpropyl)-1H-pyrazol-4-yl)-1,6-naphthyridin-7-ylamino)-3-methoxyphenyl)(3-methoxyazetidin-1-yl)methanone]
IC50: 2 nM

COc1cc(-c2cnc(C)n2C)ccc1Nc1cc2cc(-c3cnnn3C)ccc2cn1 [Example 27, N-(4-(1,2-dimethyl-1H-imidazol-5-yl)-2-methoxyphenyl)-6-(1-methyl-1H-1,2,3-triazol-5-yl)isoquinolin-3-amine]
IC50: 4 nM

COc1cc(-c2cnc(C)n2C)ccc1Nc1cc2cc(-c3ccc(N(C)C(=O)OC(C)(C)C)nc3)ccc2cn1 [Example 12, tert-Butyl (5-(3-((4-(1,2-dimethyl-1H-imidazol-5-yl)-2-methoxyphenyl)amino)isoquinolin-6-yl)pyridin-2-yl)(methyl)carbamate]
IC50: 713 nM

COc1cc(-c2cnn(C)c2)ccc1Nc1cc2nc(-c3cnn(C)c3)ccc2cn1 [Example 100, N-(2-Methoxy-4-(1-methyl-1H-pyrazol-4-yl)phenyl)-2-(1-methyl-1H-pyrazol-4-yl)-1,6-naphthyridin-7-amine]
IC50: 6 nM

COc1cc(-c2cnc(C)n2C)ccc1Nc1cc2cc(-c3cnn(CC(F)F)c3)ccc2cn1 [Example 3, 6-(1-(2,2-Difluoroethyl)-1H-pyrazol-4-yl)-N-(4-(1,2-dimethyl-1H-imidazol-5-yl)-2-methoxyphenyl)isoquinolin-3-amine]
IC50: 2 nM

From patent US9334286B2, “Pharmacologically active compounds” (Cancer Research Technology Limited, priority 2012, dated 2016)
